Assay results taken from patent EP2952182A1, “Compounds and methods for increasing the immune response to papillomavirus” (Universitätsklinikum Heidelberg, priority 2014, dated 2015).

Experiments:
[1] = test system: HPV16 L1 protein; assay: Detection of HPV L1 capsid protein by immunoblotting (Western blot) in treated Caski cells; assay type: cell-based; details: Caski cells treated for 28 days, band at approximately 55 kDa, anti HPV16 L1 polyclonal rabbit antibodies, Fig. 4
Procedure: 5-aza-2'-deoxycytidine was added daily to cultures of Caski cells at concentrations […]. Caski cells were cultured with medium changed every 24 hours. Treatments were stopped at day 28 and the cells were grown in the absence of drugs for […]. The same culture conditions were used for untreated and DMSO treated Caski cells. Samples were collected on days 7, 14, 21, 28 and 38 for genomic DNA and total RNA purifications.
Protein extracts were also obtained from Caski cells on days 7, 14, 21, 28 and 38 of treatment. Cells were lysed in RIPA buffer containing Protease Inhibitor Cocktail (Sigma). Whole-cell lysates were prepared in denaturing SDS sample buffer and subjected to 12% SDS-PAGE. Proteins were transferred to PVDF Membrane (Invitrogen) and the blots were blocked with 5% non-fat dry milk in TBS-T buffer. The anti HPV16 L1 polyclonal rabbit antibodies (kindly provided by Dr Martin Muller, DKFZ, Germany) were used to detect the HPV16 L1 protein. Horseradish peroxidase conjugated secondary antibodies (1:2000 dilution, Anti-rabbit IgG, HRP-linked Antibody #7074 (Cell Signaling) were detected using Western Blotting Chemiluminescence Luminol Reagent (Santa Cruz).

[2] = test system: Caski cells; assay: CD107a mobilization (degranulation) assay of L1-stimulated T cells against pretreated Caski cells; assay type: cell-based
Procedure: PBMCs were obtained from blood of a healthy, HLA-A*0201 positive donor by density gradient centrifugation with lymphocyte separation medium (PAA, Pasching, Austria). PBMCs were resuspended in RPMI medium (Gibco, Paisley, UK), containing 5% human serum and seeded in cell culture flasks. After 4 hours of adherence at 37°C the non-adherent cells were removed. To stimulate the differentiation of monocytes into dendritic cells, the adherent fraction of cells was cultured in CellGro Medium (CellGenix, Freiburg, Germany) containing GM-CSF (1000 U/ml, Promokine, Heidelberg, Germany) and IL-4 (666,7 U/ml, Promokine, Heidelberg, Germany) for 5-7 days. Then, IL-4 and GM-CSF were added again together with a terminal differentiation-inducing cocktail containing the proinffammatory cytokines IL-6 (1000 U/ml Promokine, Heidelberg, Germany), IL-1β (10 ng/ml Promokine, Heidelberg, Germany), PGE-2 ([…], Promokine, Heidelberg, Germany) and TNF-α (10 ng/ml, Promokine, Heidelberg, Germany) were added and cells were incubated overnight. […]
To monitor the degranulation of L1-stimulated T cells (effectors) induced by Caski cells (targets), Caski cells pretreated with different concentrations of 5-Aza-2'-deoxycytidine (0.1 µM and 1.0 µM) for 12 days or untreated cells were used. […] Degranulation rate was measured as the fraction of CD107a/CD8 double staining cells relative to total CD8 positive cells (Fig. 5).

[3] = test system: cancer cell lines; details: low-dose treatment; cited from earlier work

Structure (SMILES): Nc1ncn([C@H]2C[C@H](O)[C@@H](CO)O2)c(=O)n1 [5-aza-2'-deoxycytidine]
- L1 protein expression level [1]: Significant increase
- fraction of T cells undergoing degranulation (CD107a/CD8 double staining cells relative to total CD8 positive cells) ([2]; Caski cells pretreated with 0.1 µM and 1.0 µM for 12 days vs untreated, effectors and targets 1:1, 5 hours, Fig. 5): increased

Structure (SMILES): Nc1ncn([C@@H]2O[C@H](CO)[C@@H](O)[C@H]2O)c(=O)n1 [5-azacytidine]
- expression of immune-related genes [3]: leads to expression of immune-related genes

Structure (SMILES): Nc1ncn([C@@H]2O[C@H](CO)[C@@H](O)[C@H]2O)c(=O)n1 [azacitidine]
- cytolytic activity of T-cells stimulated in vitro with L1-derived peptides towards Caski cells ([2]; treated Caski cells expressing the L1-antigen, degranulation rate, Fig. 5 legend): Enhanced
